This is an account of results in patent publication US4376785A, “Cyclopropanecarboxylates and a low fish toxic insecticide and/or acaricide containing them” (priority 1980, dated 1983).

Data set [1] relates to killifish (Oryzias latipes). Description: Toxicity to killifish (TLm48), Test example 1. The format is in vivo. The conditions noted are these: killifish, medium tolerance limit, 48 hours. The method, then: (§1) Toxicity to killifish (Oryzias latipes) was tested accordig to the test method for toxicity to fishes described in Notification B No. 2735 of the Ministry of Agriculture and Forestry (Nov. 25, 1965). Namely, each of the present compounds (1), (2), (4), (5), (6), (8), (9), (11) and reference compounds was dissolved or suspended in "Tween 80" and diluted successively with dechlorinated tap water. Ten killifish (0.2-0.3 g per fish) were released in a 10-liter glass vessel containing 5 liters of each preparation.
(§2) In order to make it clearer that the present compounds have a low toxicity to fishes as well as a high insecticidal activity, a safety coefficient to fishes was calculated from the test results of toxicity to fishes and insecticidal activity. [formula]
(§3) A detailed explanation will be given to a method of how to calculate the safety coefficient. In the case of green rice leafhoppers, calculation was based on the concentration of active ingredient in water obtained by applying a test solution containing the active ingredient in an amount corresponding to LC50 (ppm) to a flooded paddy field 5 cm deep at a rate of 100 liter/10 are, provided that all the active ingredient applied entered the water.
(§4) For example, the safety coefficient to fishes of the present compound (1) is calculated as follows: The quantity of water in a flooded paddy field 5 cm deep and 10 are in area is 50 tons; when a test solution containing the active ingredient in an amount corresponding to LC50 (ppm) is added to the paddy field at a rate of 100 liter/10 are the concentration of the active ingredient in water (hereinafter referred to as (b)) is 0.008 pp; as the toxicity to fishes [TLm48 (ppm)] (hereinafter referred to as (a)) is >2.0 ppm, said coefficient can be calculated by dividing (a) by (b). In this case, the coefficient is >250, which means that the present compound (1) has a safety higher than 250-fold.

The nature of data set [2]: Toxicity to killifish (TLm48), Test example 1. The conditions noted are these: for selectivity ratio: in vivo, TLm48 divided by concentration in water at green rice leafhopper LC50, read-out: Safety coefficient to fishes (a)/(b); for LC50 at 48 h: water, killifish, medium tolerance limit, read-out: Toxicity to fishes TLm48 (a). Type of data set: in vivo, Oryzias latipes. How it is done: as §1, §2, §3, §4

Data set [3] relates to green rice leafhopper (Nephotettix cincticeps). Put plainly: Simulated paddy field box test, green rice leafhopper, Test example 6. Type of data set: in vivo. The note with it: wettable powder, 100 ppm, 100 liter/10 are, after 48 hours. The method, then:
(§5) The wettable powder of each of the present compounds (1), (3), (5), (6) and (11) prepared in Preparation example 4 was diluted with water so that the concentration of active ingredient was 100 ppm. Soil was placed in a plastic box [5 m×5 m×2 m (deep)] to a level of 50 cm from the bottom, and rice plants about 50 cm high were transplanted at invervals of 50 cm. Water was then placed in the box so that water depth was 5 cm, and 20 killifishes (Oryzias latipes) were liberated therein. Thereafter, the above dilute solution was sprayed on the box at a rate of 100 liter/10 are. The solution fell on the rice plants as well as on the water surface.
(§6) One hour after treatment, 100 female adults of green rice leafhopper (Nephotettix cincticeps) were liberated in the box which was immediately covered with a net.

For data set [4], the system named is killifishes (Oryzias latipes). Put plainly: Simulated paddy field box test, killifish survival, Test example 6. Type of data set: in vivo. The conditions noted are these: wettable powder, 100 ppm, 100 liter/10 are, water depth 5 cm, after 48 hours. How it is done:
as §5, §6

Data set [5] deals with green rice leafhopper (Nephotettix cincticeps), R-strain. Description: Insecticidal activity against green rice leafhopper, sprayed rice plants, Test example 1. The format is in vivo. The note with it: green rice leafhopper female adults, spray on rice plant, 26° C., 24 hours. The method, then: The emulsifiable concentrates of the present compounds and reference compounds prepared in Preparation example 1 were each formulated into test solutions having four different concentrations of active ingredient between 500 ppm and 0.5 ppm. Each test solution was sprayed on a rice plant in a 180-ml plastic cup which had elapsed one month after sowing, at a rate of 15 ml/2 cups by means of a turn table. After air-drying, the rice plate was covered with a wire-screen cage, and 15 female adults of green rice leafhopper (Nephotettix cincticeps) (a strain resistant to carbamates and organo-phosphates, hereinafter referred to as R-strain) were liberated therein. The plant was placed in an artificial climate chamber kept at 26° C. After 24 hours, the dead and alive were examined. The median lethal concentratin [LC50 (ppm)] was calculated from the mortality determined by 3 replications. […]

Data set [6] has as its system green rice leafhopper (Nephotettix cincticeps). Put plainly: Residual effect test, Text example 5. Type of data set: in vivo. The note with it: 20 cc per pot, 24 hours. How it is done: The emulsifiable concentrate of each of the present compounds (5) and (11) prepared in Preparation example 1 was diluted with water so that the conentration of active ingredient was 400 ppm. Thereafter, 20 cc of the dilute solution was sprayed on rice plants grown in a 1/10,000 are Wagner's pot. The rice plants were air-dried and covered with a wire-screen cage, and 15 female adults of green rice leafhopper (Nephotettix cincticeps) were liberated therein. After 24 hours, the dead and alive were examined to obtain mortality. In order to examine the residual effect, the pot was then left as it was for 7 days, and the test insects were liberated in the same manner as above. After 24 hours, the mortality was examined. The experiment was carried out in a greenhouse and the number of replications was three.

Data set [7] concerns yellow fever mosquito (Aedes aegypti). Type of data set: in vivo. The conditions noted are these: 50 mg of granules (Preparation example 6) in 100 ml water, full grown larvae, after 24 hours. How it is done: Fifty milligrams of each of the granules of the present compounds (5) and (11) obtained in Preparation example 6 was placed in a 100-ml beaker containing 100 ml of distilled water, and 30 full grown larvae of yellow fever mosquito (Aedes aegypti) were liberated therein. After 24 hours, 100% of the larvae could be killed.

Data set [8] deals with carmine mites (Tetranychus cinnabarinus). Put plainly: Damage to rice plants by carmine mites, Test example 4. The note with it: 500 ppm spray, after 10 days. The format is in vivo. How it is done: The emulsifiable concentrate of each of the present compounds (3), (5), (9) and (11) prepared in Preparation example 1 was diluted with water so that the concentration of the active ingredient was 500 ppm. The dilute liquor was thoroughly sprayed on rice plants (grown in a 1/10,000 are Waner's pot) on which carmine mites (Tetranychus cinnabarinus) in all stages were made parasitic.

In data set [9] the test system is housefly (Musca domestica). Put plainly: Housefly mortality, treated filter paper with bait, Test example 7. The format is in vivo. The note with it: 0.7 ml on filter paper, housefly female adults, 48 hours. The method, then: The emulsifiable concentrate obtained in preparation Example 1 was diluted 200 times with water (corresponding to 500 ppm of the active ingredient). On the bottom a polyethylene cup of 5.5 cm in diameter was placed a piece of filter paper of the same size, and 0.7 ml of the above dilute liquor was dropped on the filter paper. Sucrose (30 mg) was placed on the paper as bait. Thereafter, 10 housefly female adults (Musca domestica) were liberated in the cup which was then covered with a lid. After 48 hours, the dead and alive were counted to obtain mortality (4 replications).

For data set [10], the system named is CSMA strain housefly (Musca domestica). Put plainly: Topical application to housefly adults, Test example 8. The conditions noted are these: topical to ventral thorax, 0.5 μl/adult, female adults, 24 hours. Type of data set: in vivo. The method, then: The present compounds as below and reference compounds were each diluted with acetone into test solutions having four different concentrations of active ingredient. Each test solution was topically applied to the ventral throrax of CSMA strain housefly female adults (Musca domestica), at a rate of 0.5 μl/adult by means of a microapplicator.
The adults were then liberated in a polyethylene cup and fed with milk, sugar and water. After 24 hours, the dead and alive were observed. The median lethal dosage (LD50 μg/adult) was obtained from the morality (3 replications).

Setting [11] is: insects liberated 7 days after treatment, read-out: Mortality, effect 7 days after treatment.
The mark [12] stands for this setting: read-out: Mortality, effect immediately after treatment.

Read-outs that look alike come from different tables or passages of the source. Bounds are passed on as bounds.

In the case of `CC1(C)[C@H](C(=O)OC(C#N)c2ccc(F)c(Oc3ccc(Br)cc3)c2)[C@H]1C(Br)C(Cl)(Cl)Br` (relative stereo) [compound (1), 3-(4-Bromophenoxy)-4-fluoro-α-cyanobenzyl dl-trans-2,2-dimethyl-3-(1,2-dibromo-2,2-dichloroethyl)cyclopropanecarboxylate], the “Toxicity to fishes TLm48 (a)” value in [1] is more than 2.0 ppm. Moreover, in [2], the selectivity ratio was more than 250 and the LC50 at 48 h was more than 2 µg/mL. For the same molecule, the “green rice leafhoppers alive” value in [3] is reported as “no alive green rice leafhoppers were found”. In addition, in data set [4], the killifishes alive result is recorded as “all of the killifishes were alive”. Further, the LC50 in [5] is 3.8 ppm.
Regarding `CC1(C)C(C(=O)OC(C#N)c2ccc(F)c(Oc3ccc(Br)cc3)c2)C1C(Br)C(Cl)(Cl)Br` (stereo not drawn) [(11), 3-(4-bromphenoxy)-4-fluoro-α-cyanobenzyl 2,2-dimethyl-3-(1,2-dibromo-2,2-dichloroethyl)cyclopropanecarboxylate], the mortality at 400 ppm in [6] (setting [11]) and in [6] (setting [12]) was 100% each time. Further, in data set [2], the selectivity ratio was more than 200. Besides, the LC50 at 48 h in [2] was more than 2 µg/mL. The “green rice leafhoppers alive” value in data set [3] is “no alive green rice leafhoppers were found”. In addition, the larvae killed in data set [7] is 100%. Besides, in data set [4], the killifishes alive result is listed as “all of the killifishes were alive”. The molecule further gave an LC50 in data set [5] of 4.7 ppm. Moreover, in data set [8], the “damage to rice plants by carmine mites” value is listed as “the spreading of the damage could be prevented”.
As for `CC1(C)C(C(=O)OC(C#N)c2ccc(F)c(Oc3ccc(Cl)cc3)c2)C1C(Br)C(Cl)(Cl)Br` (stereo not drawn) [compound (5), 3-(4-Chlorophenoxy)-4-fluoro-α-cyanobenzyl 2,2-dimethyl-3-(1,2-dibromo-2,2-dichloroethyl)cyclopropanecarboxylate], the mortality at 400 ppm in data set [6] (setting [11]) is 100%. Also, the mortality at 400 ppm in data set [6] (setting [12]) worked out at 100%. The mortality at 500 ppm in data set [9] was 100%. Further, in data set [2], the selectivity ratio is more than 100 and the LC50 at 48 h is more than 1 µg/mL. For the same molecule, in [3], the “green rice leafhoppers alive” value is “no alive green rice leafhoppers were found”. This molecule came in with a larvae killed in data set [7] of 100%. In data set [10], the LD50 stood at 0.033 μg/adult. The killifishes alive result in [4] is “all of the killifishes were alive”. The molecule also registered an LC50 in [5] of 4.8 ppm. Further, the “damage to rice plants by carmine mites” value in data set [8] is “the spreading of the damage could be prevented”.

The mortality is the share of the test organisms that died.
